US8003660B2, “Modulators of muscarinic receptors” (Vertex Pharmaceuticals Incorporated, priority 2006, dated 2011)
Where two headings read alike, the source gives them in different places.

Experiments:
Assay type in all cases: cell-based
M2 muscarinic receptor = target: T1, M2 muscarinic receptor (Homo sapiens, UniProt P08172); test: Functional mobilization of intracellular calcium (FLIPR) in CHO cells expressing M2; settings: for EC50: CHO cells expressing M2, FLIPR calcium; for Emax: CHO; for M2 Activity: CHO cells expressing M2, FLIPR calcium assay
T1 construct: expressed in transfected cells; host or cells: CHO (M2-CHO)
T1 sequence (P08172 1-466): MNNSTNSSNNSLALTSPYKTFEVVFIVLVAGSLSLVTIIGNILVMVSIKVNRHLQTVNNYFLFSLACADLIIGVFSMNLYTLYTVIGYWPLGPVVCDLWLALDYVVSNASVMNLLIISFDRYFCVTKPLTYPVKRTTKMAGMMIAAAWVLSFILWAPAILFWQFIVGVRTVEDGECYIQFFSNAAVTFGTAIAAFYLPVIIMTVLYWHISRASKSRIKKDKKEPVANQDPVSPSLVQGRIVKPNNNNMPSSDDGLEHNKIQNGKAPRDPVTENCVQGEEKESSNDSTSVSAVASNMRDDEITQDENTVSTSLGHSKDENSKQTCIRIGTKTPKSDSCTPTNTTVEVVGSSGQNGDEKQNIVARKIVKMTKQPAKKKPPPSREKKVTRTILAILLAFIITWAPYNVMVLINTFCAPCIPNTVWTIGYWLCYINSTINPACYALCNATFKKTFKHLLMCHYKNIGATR
Outline: (§1)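 Calcium flux is read on FLIPR over 60 sec at 488/540 nm in muscarinic-receptor CHO lines. Antagonist mode adds carbachol at EC80 after 15 min compound preincubation or with simultaneous co-application. Agonist mode adds compound alone. Cells carry Fluo-3 or Calcium 3 dye in probenecid-containing pH 7.4 buffer, 0.5% DMSO final.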

M4 muscarinic receptor = target: T2, M4 muscarinic receptor (Homo sapiens, UniProt P08173); test: Functional mobilization of intracellular calcium (FLIPR) in CHO cells expressing M4; settings: for EC50: CHO cells expressing M4, FLIPR calcium; for Emax: CHO; for M4 Activity: CHO cells expressing M4, FLIPR calcium assay
T2 construct: expressed in transfected cells; host or cells: CHO (M4-CHO)
T2 sequence (P08173 1-479): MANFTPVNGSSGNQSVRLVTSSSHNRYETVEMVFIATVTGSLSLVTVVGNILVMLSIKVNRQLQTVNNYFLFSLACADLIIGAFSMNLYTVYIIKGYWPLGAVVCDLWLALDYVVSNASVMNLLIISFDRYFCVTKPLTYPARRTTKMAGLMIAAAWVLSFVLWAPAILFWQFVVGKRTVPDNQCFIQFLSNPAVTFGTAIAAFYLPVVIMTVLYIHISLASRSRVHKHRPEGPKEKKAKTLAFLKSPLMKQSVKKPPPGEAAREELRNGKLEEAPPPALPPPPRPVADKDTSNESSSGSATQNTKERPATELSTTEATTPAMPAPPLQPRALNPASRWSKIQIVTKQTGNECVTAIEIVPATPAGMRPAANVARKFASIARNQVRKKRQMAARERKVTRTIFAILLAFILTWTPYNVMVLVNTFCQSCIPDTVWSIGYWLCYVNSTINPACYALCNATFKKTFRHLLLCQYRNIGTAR
Outline: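 Read-out: FLIPR fluorescence (ex 488, em 540 nm) over 60 s. Recombinant CHO lines are dye-loaded (Fluo-3 AM or Calcium 3) with 1 mM probenecid. For antagonist mode, compound is pre-incubated 15 min, or co-applied, then carbachol is added at 3× EC80 per subtype.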

M3 muscarinic receptor = target: T3, M3 muscarinic receptor (Homo sapiens, UniProt P20309); test: Functional mobilization of intracellular calcium (FLIPR) in CHO cells expressing M3; settings: for EC50: CHO cells expressing M3, FLIPR calcium; for Emax: CHO; for M3 Activity: CHO cells expressing M3, FLIPR calcium assay
T3 construct: expressed in transfected cells; host or cells: CHO (M3-CHO)
Outline: as §1

M1 muscarinic receptor = target: T4, M1 muscarinic receptor (Homo sapiens, UniProt P11229); test: Functional mobilization of intracellular calcium (FLIPR) in CHO cells expressing M1; settings: for EC50: CHO cells expressing M1, FLIPR calcium; for Emax: CHO; for M1 Activity: CHO cells expressing M1, FLIPR calcium assay
T4 construct: expressed in transfected cells; host or cells: CHO (M1-CHO)
T4 sequence (P11229 1-460): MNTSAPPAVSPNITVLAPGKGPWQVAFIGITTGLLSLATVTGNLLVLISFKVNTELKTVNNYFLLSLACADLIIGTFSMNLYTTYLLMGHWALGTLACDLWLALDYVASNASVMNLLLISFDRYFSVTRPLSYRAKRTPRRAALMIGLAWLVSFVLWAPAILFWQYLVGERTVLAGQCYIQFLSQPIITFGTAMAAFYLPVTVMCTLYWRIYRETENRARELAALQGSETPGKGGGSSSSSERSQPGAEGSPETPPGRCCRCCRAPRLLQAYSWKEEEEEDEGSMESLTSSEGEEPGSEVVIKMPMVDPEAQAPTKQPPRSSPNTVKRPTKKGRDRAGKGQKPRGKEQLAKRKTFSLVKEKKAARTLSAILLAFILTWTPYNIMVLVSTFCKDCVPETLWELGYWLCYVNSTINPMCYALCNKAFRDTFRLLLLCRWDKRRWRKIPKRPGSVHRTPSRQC
Outline: as §1

[1] = 100% = maximum response obtained with the Carbachol control, read-out: M2 Efficacy
[2] = 100% = maximum response obtained with the Carbachol control, read-out: M4 Efficacy
[3] = 100% = maximum response obtained with the Carbachol control, read-out: M3 Efficacy
[4] = 100% = maximum response obtained with the Carbachol control, read-out: M1 Efficacy
[5] = 100% efficacy = maximum response obtained with the Carbachol control

T3 sequence (P20309 whole entry): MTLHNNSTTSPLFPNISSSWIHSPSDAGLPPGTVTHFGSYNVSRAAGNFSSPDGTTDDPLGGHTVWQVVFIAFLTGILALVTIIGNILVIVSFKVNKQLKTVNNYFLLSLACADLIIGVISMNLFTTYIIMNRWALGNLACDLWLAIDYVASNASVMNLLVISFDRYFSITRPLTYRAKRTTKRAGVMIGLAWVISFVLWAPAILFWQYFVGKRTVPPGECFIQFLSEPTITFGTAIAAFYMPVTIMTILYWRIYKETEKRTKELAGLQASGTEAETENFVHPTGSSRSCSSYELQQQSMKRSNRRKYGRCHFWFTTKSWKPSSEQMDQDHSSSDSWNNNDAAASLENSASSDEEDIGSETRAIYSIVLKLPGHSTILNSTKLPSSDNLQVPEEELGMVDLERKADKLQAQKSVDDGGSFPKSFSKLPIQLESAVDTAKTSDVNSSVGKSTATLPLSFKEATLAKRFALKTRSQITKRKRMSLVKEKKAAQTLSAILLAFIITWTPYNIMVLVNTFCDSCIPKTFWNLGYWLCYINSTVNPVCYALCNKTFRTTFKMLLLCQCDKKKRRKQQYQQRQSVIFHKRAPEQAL

Compound | EC50 (M2 muscarinic receptor) | Emax (M2 muscarinic receptor; [1]) | EC50 (M4 muscarinic receptor) | Emax (M4 muscarinic receptor; [2]) | EC50 (M3 muscarinic receptor) | Emax (M3 muscarinic receptor; [3]) | EC50 (M1 muscarinic receptor) | Emax (M1 muscarinic receptor; [4]) | M2 Activity (M2 muscarinic receptor) | Emax (M2 muscarinic receptor; [5]) | M4 Activity (M4 muscarinic receptor) | Emax (M4 muscarinic receptor; [5]) | M3 Activity (M3 muscarinic receptor) | Emax (M3 muscarinic receptor; [5]) | M1 Activity (M1 muscarinic receptor) | Emax (M1 muscarinic receptor; [5])
CC(C)CCN1CCC2(CC[C@H](N3CCCC3=O)c3ccccc32)CC1 [compound 90] | > 5000 nM | < 25% | 2000 to 5000 nM | 25 to 100% | > 5000 nM | < 25% | 2000 to 5000 nM | 25 to 100% |  |  |  |  |  |  |  | 
CC(=O)NCC(=O)N[C@H]1CCC2(CCN(CCC(C)(C)C)CC2)c2cc(F)ccc21 [compound 33] | < 2000 nM | 25 to 100% | < 2000 nM | 25 to 100% | > 5000 nM | < 25% | < 2000 nM | 25 to 100% |  |  |  |  |  |  |  | 
CCN(C(=O)C1CCC(OC)CC1)[C@H]1CCC2(CCN(CCC(C)(C)C)CC2)c2ccccc21 (stereo partly drawn) [compound 24] | < 2000 nM | 25 to 100% | < 2000 nM | 25 to 100% | > 5000 nM | < 25% | > 5000 nM | < 25% |  |  |  |  |  |  |  | 
CC(=O)N1CCCC(C(=O)N[C@H]2CCC3(CCN(CCC(C)(C)C)CC3)c3ccccc32)C1 (stereo partly drawn) [compound 121] | > 5000 nM | < 25% | < 2000 nM | 25 to 100% | > 5000 nM | < 25% | < 2000 nM | 25 to 100% |  |  |  |  |  |  |  | 
COCCC(=O)N[C@H]1CCC2(CCN(CCC(C)(C)C)CC2)c2ccccc21 [compound 147] | < 2000 nM | 25 to 100% | < 2000 nM | 25 to 100% | > 5000 nM | < 25% | < 2000 nM | 25 to 100% |  |  |  |  |  |  |  | 
CC(=O)NC1CC2(CCN(C(C)C(C)C)CC2)c2ccccc21 (stereo not drawn) [compound 290] |  |  |  |  |  |  |  |  | + (activity was measured to be greater than 5.0 μM) | < 25% | + (activity was measured to be greater than 5.0 μM) | 25 to 100% | + (activity was measured to be greater than 5.0 μM) | < 25% | + (activity was measured to be greater than 5.0 μM) | 25 to 100%
CN1CCC2(CCCc3ccccc32)CC1 [compound 232] |  |  |  |  |  |  |  |  | + (activity was measured to be greater than 5.0 μM) | < 25% | + (activity was measured to be greater than 5.0 μM) | < 25% | + (activity was measured to be greater than 5.0 μM) | < 25% | + (activity was measured to be greater than 5.0 μM) | < 25%
CC(=O)N[C@@H]1CCC2(CCN(CCC(C)(C)C)CC2)c2cc(F)ccc21 [compound 189] |  |  |  |  |  |  |  |  | +++ (activity was measured to be less than 2.0 μM) | < 25% | +++ (activity was measured to be less than 2.0 μM) | 25 to 100% | + (activity was measured to be greater than 5.0 μM) | < 25% | +++ (activity was measured to be less than 2.0 μM) | 25 to 100%
CC(=O)N1CCC(C(=O)N(C)[C@H]2CCC3(CCN(CCC(C)(C)C)CC3)c3ccccc32)CC1 [compound 132] | > 5000 nM | < 25% | < 2000 nM | 25 to 100% | > 5000 nM | < 25% | 2000 to 5000 nM | 25 to 100% |  |  |  |  |  |  |  | 
